Data reported in US20260125375A1 (Pfizer Inc., priority 2022, published 2026).

How the values were obtained:
CBL-B (residues 36-427) = target: T1, CBL-B (residues 36-427) (Homo sapiens, UniProt Q13191); assay: Ligand Displacement Assay (LDA), HTRF competitive binding against BODIPY-labeled fluorescent tracer, CBL-B; conditions: geometric mean of the number of tests, read-out: CBL-B Ki (nM) GMean
T1 construct: Purified CBL-B (residues 36-427) and C-CBL (residues 46-435) proteins from baculovirus-infected insect cells; made in house; host or cells: baculovirus-infected insect cells
Outline: (§1)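 Ki values, given as geometric means of repeated tests, come from TR-FRET displacement of a BODIPY-labelled tracer from terbium-streptavidin-bound, AviTag-biotinylated protein made in baculovirus-infected insect cells. Compounds ran as three-fold dilutions in duplicate, […], 2% DMSO.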

C-CBL (46-435) = target: T2, C-CBL (46-435) (Homo sapiens, UniProt P22681); assay: Surface Plasmon Resonance (SPR) assay, binding affinity and kinetics, C-CBL; conditions: SPR at 10° C., biotinylated C-CBL (46-435) on streptavidin chip; geometric mean; read-out: C-CBL SPR Kd (nM) GMean
T2 construct: N-terminal biotinylated WT CBL-B (36-427) and C-CBL (46-435) were captured on a streptavidin (SA) coated sensor chip
T2 sequence (P22681 46-435): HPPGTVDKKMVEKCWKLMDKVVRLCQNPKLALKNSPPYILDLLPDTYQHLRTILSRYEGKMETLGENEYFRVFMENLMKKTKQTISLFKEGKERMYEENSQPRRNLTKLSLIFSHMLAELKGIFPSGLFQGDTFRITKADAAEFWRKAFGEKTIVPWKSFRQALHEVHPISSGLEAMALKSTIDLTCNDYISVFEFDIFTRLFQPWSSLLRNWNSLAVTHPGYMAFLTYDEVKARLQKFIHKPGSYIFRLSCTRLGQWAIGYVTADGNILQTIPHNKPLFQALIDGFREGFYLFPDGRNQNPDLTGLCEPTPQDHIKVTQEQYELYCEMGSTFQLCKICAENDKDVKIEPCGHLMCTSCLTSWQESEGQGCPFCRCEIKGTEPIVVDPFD
Outline: (§2)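 Biotinylated WT CBL-B (36-427) or C-CBL (46-435) captured on streptavidin chip (~5000–6000 RU); binding at 10° C in HEPES buffer pH 7.2 with 2% DMSO. Multi-cycle: 2-fold, 10-point series from 10 or 100 μM, 90 s association. Single-cycle: 3-fold, 6-point, 0.001–1 μM, 120 s association, >5400 s dissociation.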

WT CBL-B (36-427) = target: T3, WT CBL-B (36-427) (Homo sapiens, UniProt Q13191); assay: Surface Plasmon Resonance (SPR) assay, binding affinity and kinetics, CBL-B; conditions: SPR at 10° C., biotinylated WT CBL-B (36-427) on streptavidin chip; geometric mean; read-out: CBL-B SPR Kd (nM) GMean
T3 construct: N-terminal biotinylated WT CBL-B (36-427) and C-CBL (46-435) were captured on a streptavidin (SA) coated sensor chip
Outline: as §2

C-CBL (residues 46-435) = target: T4, C-CBL (residues 46-435) (Homo sapiens, UniProt P22681); assay: Ligand Displacement Assay (LDA), HTRF competitive binding against BODIPY-labeled fluorescent tracer, C-CBL; conditions: geometric mean of the number of tests, read-out: C-CBL Ki (nM) GMean
T4 construct: Purified CBL-B (residues 36-427) and C-CBL (residues 46-435) proteins from baculovirus-infected insect cells; made in house; host or cells: baculovirus-infected insect cells
T4 sequence (P22681 46-435): T2 sequence (P22681 46-435)
Outline: as §1

| Structure (SMILES) | Ki (CBL-B (residues 36-427)) | Kd (C-CBL (46-435)) | Kd (WT CBL-B (36-427)) | Ki (C-CBL (residues 46-435)) |
| --- | --- | --- | --- | --- |
| Cn1cnnc1[C@@H](c1cccc(-c2n[nH]c3c(CN[C@H]4CC[C@@H](O)C4)nc(C(F)(F)F)cc23)c1)C1CCC1 [Example D87] | 12.2 nM | 128 nM | 4.8 nM | 112 nM |
| Cn1cnnc1[C@@H](c1cccc(-c2n[nH]c3c(CN4CCCC4)nc(C(F)(F)F)cc23)c1)C1CCC1 [Example D94] | 29.2 nM | 163 nM | 5.5 nM | 192 nM |
| Cn1cnnc1[C@@H](c1cccc(-c2n[nH]c3c(CN4CCCCC4)nc(C(F)(F)F)cc23)c1)C1CCC1 [Example D95] | 40.7 nM | 226 nM | 6.5 nM | 360 nM |
| Cn1cnnc1[C@@H](c1cccc(-c2n[nH]c3c(CN4CCOCC4)nc(C(F)(F)F)cc23)c1)C1CCC1 [Example D96] | 41.9 nM | 120 nM | 5.5 nM | 377 nM |
| CN1CC[C@H](Oc2nc(C(F)(F)F)cc3c(-c4cccc(C5(Cc6nncn6C)COC5)c4)n[nH]c23)C1 [Example J1, 7-{[(3S)-1-methylpyrrolidin-3-yl]oxy}-3-(3-{3-[(4-methyl-4H-1,2,4-triazol-3-yl)methyl]oxetan-3-yl}phenyl)-5-(trifluoromethyl)-1H-pyrazolo[3,4-c]pyridine] | 13.5 nM | 36.7 nM | 4.3 nM | 58.1 nM |
| Cn1cnnc1CC1(c2cccc(-c3n[nH]c4c(OCCN)nc(C(F)(F)F)cc34)c2)COC1 [Example J3, 2-{[3-(3-{3-[(4-methyl-4H-1,2,4-triazol-3-yl)methyl]oxetan-3-yl}phenyl)-5-(trifluoromethyl)-1H-pyrazolo[3,4-c]pyridin-7-yl]oxy}ethan-1-amine] | 16.7 nM | 53.6 nM | 3.2 nM | 76.3 nM |
| CN1CC[C@@H](Oc2nc(C(F)(F)F)cc3c(-c4cccc([C@H](c5nncn5C)C5CCC5)c4)n[nH]c23)C1 [Example J4, 3-{3-[(R)-cyclobutyl(4-methyl-4H-1,2,4-triazol-3-yl)methyl]phenyl}-7-{[(3R)-1-methylpyrrolidin-3-yl]oxy}-5-(trifluoromethyl)-1H-pyrazolo[3,4-c]pyridine] | 9.2 nM | 145 nM | 3.7 nM | 83.6 nM |
| CN1CC[C@H](Oc2nc(C(F)(F)F)cc3c(-c4cccc([C@H](c5nncn5C)C5CCC5)c4)n[nH]c23)C1 [Example J5, 3-{3-[(R)-cyclobutyl(4-methyl-4H-1,2,4-triazol-3-yl)methyl]phenyl}-7-{[(3S)-1-methylpyrrolidin-3-yl]oxy}-5-(trifluoromethyl)-1H-pyrazolo[3,4-c]pyridine] | 10 nM | 137 nM | 3.3 nM | 87.1 nM |
| CNc1nc(C(F)(F)F)cc2c(-c3cccc(C4(Cc5nncn5C)COC4)c3)n[nH]c12 [Example J8, N-methyl-3-(3-{3-[(4-methyl-4H-1,2,4-triazol-3-yl)methyl]oxetan-3-yl}phenyl)-5-(trifluoromethyl)-1H-pyrazolo[3,4-c]pyridin-7-amine] | 69.3 nM | 136 nM | 16.1 nM | 251 nM |
| CN(C)c1nc(C(F)(F)F)cc2c(-c3cccc(C4(Cc5nncn5C)COC4)c3)n[nH]c12 [Example J9, N,N-dimethyl-3-(3-{3-[(4-methyl-4H-1,2,4-triazol-3-yl)methyl]oxetan-3-yl}phenyl)-5-(trifluoromethyl)-1H-pyrazolo[3,4-c]pyridin-7-amine] | 92.2 nM | 244 nM | 30.1 nM | 228 nM |
| COc1nc(C(F)(F)F)cc2c(-c3cccc(C4(Cc5nncn5C)COC4)c3)n[nH]c12 [Example J10, 7-methoxy-3-(3-{3-[(4-methyl-4H-1,2,4-triazol-3-yl)methyl]oxetan-3-yl}phenyl)-5-(trifluoromethyl)-1H-pyrazolo[3,4-c]pyridine] | 25.1 nM | 178 nM | 21.4 nM | 91.9 nM |
| CN1CC[C@@H](N(C)c2nc(C(F)(F)F)cc3c(-c4cccc([C@H](c5nncn5C)C5CCC5)c4)n[nH]c23)C1 [Example J11, 3-{3-[(R)-cyclobutyl(4-methyl-4H-1,2,4-triazol-3-yl)methyl]phenyl}-N-methyl-N-[(3R)-1-methylpyrrolidin-3-yl]-5-(trifluoromethyl)-1H-pyrazolo[3,4-c]pyridin-7-amine] | 41.6 nM | 393 nM | 24 nM | 275 nM |
| CN1CC[C@H](N(C)c2nc(C(F)(F)F)cc3c(-c4cccc([C@H](c5nncn5C)C5CCC5)c4)n[nH]c23)C1 [Example J12, 3-{3-[(R)-cyclobutyl(4-methyl-4H-1,2,4-triazol-3-yl)methyl]phenyl}-N-methyl-N-[(3S)-1-methylpyrrolidin-3-yl]-5-(trifluoromethyl)-1H-pyrazolo[3,4-c]pyridin-7-amine] | 16.1 nM | 240 nM | 16.1 nM | 118 nM |
| Cn1cnnc1CC1(c2cccc(-c3n[nH]c4c(CCN)nc(C(F)(F)F)cc34)c2)COC1 [Example K5, 2-[3-(3-{3-[(4-methyl-4H-1,2,4-triazol-3-yl)methyl]oxetan-3-yl}phenyl)-5-(trifluoromethyl)-1H-pyrazolo[3,4-c]pyridin-7-yl]ethan-1-amine] | 55.3 nM | 221 nM | 23.6 nM | 199 nM |
| Cn1cnnc1[C@@H](c1cccc(-c2n[nH]c3c(CO)nc(C(F)(F)F)cc23)c1)C1CCC1 [Example K9, [3-{3-[(R)-cyclobutyl(4-methyl-4H-1,2,4-triazol-3-yl)methyl]phenyl}-5-(trifluoromethyl)-1H-pyrazolo[3,4-c]pyridin-7-yl]methanol] | 45.4 nM | 298 nM | 12.7 nM | 328 nM |
| C[C@@H](N)c1nc(C(F)(F)F)cc2c(-c3cccc([C@H](c4nncn4C)C4CCC4)c3)n[nH]c12 [Example K13, (1R)-1-[3-{3-[(R)-cyclobutyl(4-methyl-4H-1,2,4-triazol-3-yl)methyl]phenyl}-5-(trifluoromethyl)-1H-pyrazolo[3,4-c]pyridin-7-yl]ethan-1-amine] | 27 nM | 285 nM | 12.1 nM | 215 nM |
| C[C@H](Cc1nncn1C)c1cccc(-c2n[nH]c3cnc(C(F)(F)F)cc23)c1 [Example N1, 3-{3-[(2R)-1-(4-methyl-4H-1,2,4-triazol-3-yl)propan-2-yl]phenyl}-5-(trifluoromethyl)-1H-pyrazolo[3,4-c]pyridine] | 70 nM | 275 nM | 35.8 nM | 249 nM |
